Results on 27 molecules are retold here after patent publication US7141564B2, “Nitrogen-containing bicyclic heterocycles for use as antibacterials” (priority 2001, dated 2006).

Structures can show the parent of a compound that is named as a salt.

The nature of the first experiment: MIC of test compounds against various organisms. Type of experiment: cell-based.
Conditions: not given
As for `COc1ccc2nccc(NC(=O)[C@H]3CC[C@H](NCc4ccc5c(c4)NC(=O)CS5)CC3)c2c1` [Example 28, Trans 4-[(3-Oxo-3,4-dihydro-2-H-benzo[1,4]thiazin-6-ylmethyl)-amino]-cyclohexanecarboxylic acid (6-methoxy-quinolin-4-yl)-amide], the MIC is at most 4 µg/mL.

Still in this experiment, the particulars now being: versus all these organisms (panel of 10 strains); read-out: MIC.
On to `COc1ccc2nccc(NC(=O)[C@H]3CC[C@H](NCc4cc5cccc(O)c5c(=O)[nH]4)CC3)c2n1` [Example 17, Trans-4-[(8-Hydroxy-1-oxo-1,2-dihydro-isoquinolin-3-ylmethyl)-amino]-cyclohexanecarboxylic acid (6-methoxy-[1,5]naphthyridin-4-yl)-amide dihydrochloride salt], for which the MIC is at most 16 µg/mL.

For `COc1ccc2nccc(NC(=O)[C@H]3CC[C@H](NCc4ccc5c(n4)OCCO5)CC3)c2n1` [Example 18, Trans-4-[(2,3-Dihydro-[1,4]dioxino[2,3-b]pyridin-6-ylmethyl)-amino]-cyclohexanecarboxylic acid (6-methoxy-[1,5]naphthyridin-4-yl)-amide oxalate salt], the MIC is at most 64 µg/mL.

Turning to `COc1ccc2nccc(NC(=O)[C@H]3CC[C@H](NCc4cc5c(cn4)OCCO5)CC3)c2n1` [Example 19, Trans-4-[(2,3-Dihydro-[1,4]dioxino[2,3-c]pyridin-7-ylmethyl)-amino]-cyclohexanecarboxylic acid (6-methoxy-[1,5]naphthyridin-4-yl)-amide oxalate salt], the MIC was at most 4 µg/mL.

For the molecule `COc1ccc2nccc(NC(=O)[C@H]3CC[C@H](NCc4cnc5c(c4)OCCO5)CC3)c2n1` [Example 20, Trans-4-[(2,3-Dihydro-[1,4]dioxino[2,3-b]pyridin-7-ylmethyl)-amino]-cyclohexanecarboxylic acid (6-methoxy-[1,5]naphthyridin-4-yl)-amide oxalate salt], the MIC is at most 4 µg/mL.

For `COc1ccc2nccc(C(O)C[C@H]3CC[C@H](NCc4ccc5c(c4)NC(=O)CS5)CC3)c2c1` (stereo partly drawn) [Example 21, Trans-6-({4-[2-Hydroxy-2-(6-methoxy-quinolin-4-yl)-ethyl]-cyclohexylamino}-methyl)-4-H-benzo[1,4]thiazin-3-one oxalate salt], the MIC is at most 4 µg/mL.

On to `COc1ccc2nccc(C(O)C[C@H]3CC[C@H](NCc4ccc5c(c4)OCCO5)CC3)c2c1` (stereo partly drawn) [Example 22, Trans-2-{4-[(2,3-Dihydro-benzo[1,4]dioxin-6-ylmethyl)-amino]-cyclohexyl}-1-(6-methoxy-quinolin-4-yl)-ethanol oxalate salt], for which the MIC is at most 16 µg/mL.

With `COc1ccc2nccc(NC(=O)[C@H]3CC[C@H](NCc4cc5c(cc4[N+](=O)[O-])OCO5)CC3)c2n1.O=C(O)C(=O)O` [Example 23, Trans-4-[(6-Nitro-benzo[1,3]dioxol-5-ylmethyl)-amino]-cyclohexanecarboxylic acid (6-methoxy-[1,5]naphthyridin-4-yl)-amide oxalate salt], the MIC was at most 4 µg/mL.

Regarding `COc1ccc2nccc(NC(=O)[C@H]3CC[C@H](NCc4cc5c(cc4N)OCO5)CC3)c2n1` [Example 24, Trans-4-[(6-Amino-benzo[1,3]dioxol-5-ylmethyl)-amino]-cyclohexanecarboxylic acid (6-methoxy-[1,5]naphthyridin-4-yl)-amide dioxalate salt], the MIC is at most 16 µg/mL.

As to `COc1ccc2nccc(NC(=O)[C@H]3CC[C@H](NCc4ccc5scnc5c4)CC3)c2n1` [Example 25, Trans-4-[(Benzothiazol-5-ylmethyl)-amino]cyclohexanecarboxylic acid(6-methoxy-[1,5]naphthyridine-4-yl)amide oxalate salt], the minimal inhibitory concentration (MIC) is at most 64 µg/mL.

With `COc1ccc2nccc(NC(=O)[C@H]3CC[C@H](NCc4cc(=O)n5ccccc5n4)CC3)c2n1` [Example 26, Trans-4-[(4-Oxo-4 H pyrido[1,2-a]pyrimidin-2-ylmethyl)-amino]-cyclohexanecarboxylic acid (6-methoxy-[1,5]naphthyridin-4-yl)-amide oxalate salt], the minimal inhibitory concentration (MIC) is at most 16 µg/mL.

In the case of `COc1ccc2nccc(C(=O)C[C@H]3CC[C@H](NCc4ccc5c(c4)OCCO5)CC3)c2c1` [Example 27, Trans-2-{4-[(2,3-Dihydro-benzo[1,4]dioxin-6-ylmethyl)-amino]-cyclohexyl}-1-(6-methoxy-quinolin-4-yl)-ethanone oxalate salt], the MIC is at most 64 µg/mL.

As for `NCCCOc1ccc2nccc(NC(=O)[C@H]3CC[C@H](NCc4ccc5c(c4)OCCO5)CC3)c2n1` [Example 29, Trans-4-[(2,3-Dihydro-benzo[1,4]dioxin-6-ylmethyl)-amino]-cyclohexanecarboxylic acid [6-(3-amino-propoxy)-[1,5]naphthyridin-4-yl]-amide dioxalate], the MIC was at most 16 µg/mL.

Take `COc1cc(F)c2nccc(NC(=O)[C@H]3CC[C@H](NCc4ccc5c(c4)NC(=O)CS5)CC3)c2c1` [Example 30, Trans-4-[(3-Oxo-3,4-dihydro-2-H-benzo[1,4]thiazin-6-ylmethyl)amino]-cyclohexanecarboxylic acid (8-fluoro-6-methoxy-quinolin-4-yl)-amide oxalate]: the MIC was at most 4 µg/mL.

As for `COc1ccc2nccc(NC(=O)[C@H]3CC[C@H](NCc4ccc5c(n4)NC(=O)CO5)CC3)c2n1` [Example 31, Trans-4-[(3-Oxo-3,4-dihydro-2H-pyrido[3,2-b][1,4]oxazin-6-ylmethyl)-amino]-cyclohexanecarboxylic acid (6-methoxy-[1,5]naphthyridin-4-yl)-amide oxalate], the MIC is at most 4 µg/mL.

As for `COc1ccc2nccc(NC(=O)[C@H]3CC[C@H](NCc4cnc5snnc5c4)CC3)c2n1` [Example 32, Trans-4-[([1,2,3]Thiadiazolo[5,4-b]pyridin-6-ylmethyl)-amino]-cyclohexanecarboxylic acid (6-methoxy-[1,5]naphthyridin-4-yl)-amide oxalate], the MIC is at most 4 µg/mL.

Consider `COc1ccc2nccc(NC(=O)[C@H]3CC[C@H](NCc4cc5c(cc4F)SCC(=O)N5)CC3)c2n1` [Example 34, Trans-4-[(7-Fluoro-3-oxo-3,4-dihydro-2H-benzo[1,4]thiazin-6-ylmethyl)-amino]-cyclohexanecarboxylic acid (6-methoxy-[1,5]naphthyridin-4-yl)-amide oxalate salt], for which the MIC is at most 4 µg/mL.

Turning to `COc1ccc2nccc(NC(=O)[C@H]3CC[C@H](NCc4cc5c(c([N+](=O)[O-])c4)OCC(=O)N5)CC3)c2n1` [Example 35, Trans-4-[(8-Nitro-3-oxo-3,4-dihydro-2H-benzo[1,4]oxazin-6-ylmethyl)-amino]-cyclohexanecarboxylic Acid (6-methoxy)-[1,5]naphthyridin-4-yl)-amide Oxalate], the MIC is at most 4 µg/mL.

As for `COc1ccc2nccc(NC(=O)[C@H]3CC[C@H](NCc4cc(N)c5c(c4)NC(=O)CO5)CC3)c2n1` [Example 36, Trans-4-[(8-Amino-3-oxo-3,4-dihydro-2H-benzo[1,4]oxazin-6-ylmethyl)-amino]-cyclohexanecarboxylic acid (6-methoxy)-[1,5]naphthyridin-4-yl)-amide Oxalate], the MIC was at most 64 µg/mL.

As to `COc1ccc2nccc(NC(=O)[C@]3(O)CC[C@@H](NCc4ccc5c(c4)NC(=O)CS5)CC3)c2n1` [Example 300, 1-Hydroxy-t-4-[(3-oxo-3,4-dihydro-2H-benzo[1,4]thiazin-6-ylmethyl)-amino]-r-cyclohexanecarboxylic Acid (6-methoxy-[1,5]naphthyridin-4-yl)-amide Dihydrochloride], the MIC was at most 4 µg/mL.

Turning to `COc1ccc2nccc(NC(=O)[C@]3(O)CC[C@@H](NCc4ccc5c(n4)NC(=O)CS5)CC3)c2n1` [Example 301, 1-Hydroxy-t-4-[(3-oxo-3,4-dihydro-2H-pyrido[3,2-b][1,4]thiazin-6-ylmethyl)-amino]-r-cyclohexanecarboxylic Acid (6-methoxy-[1,5]naphthyridin-4-yl)-amide Dihydrochloride], the MIC is at most 4 µg/mL.

Consider `COc1ccc2nccc(NC(=O)[C@]3(O)CC[C@@H](NCc4cc5c(cn4)SCC(=O)N5)CC3)c2n1` [Example 302, 1-Hydroxy-t-4-[(2-oxo-2,3-dihydro-1H-pyrido[3,4-b][1,4]thiazin-7-ylmethyl)-amino]-r-cyclohexanecarboxylic Acid (6-methoxy-[1,5]naphthyridin-4-yl)-amide Dihydrochloride], for which the MIC is at most 4 µg/mL.

With `COc1ccc2nccc(NC(=O)[C@]3(O)CC[C@@H](NCc4cnc5c(c4)NC(=O)CS5)CC3)c2n1` [Example 303, 1-Hydroxy-t-4-[(2-oxo-2,3-dihydro-1H-pyrido[2,3-b][1,4]thiazin-7-ylmethyl)-amino]-r-cyclohexanecarboxylic Acid (6-methoxy-[1,5]naphthyridin-4-yl)-amide Dihydrochloride], the MIC was at most 4 µg/mL.

For the molecule `COc1ccc2nccc(NC(=O)[C@]3(O)CC[C@@H](NCc4nc5c(cc4Br)SCC(=O)N5)CC3)c2n1` [Example 304, 1-Hydroxy-t-4-[(7-bromo-3-oxo-3,4-dihydro-2H-pyrido[3,2-b][1,4]thiazin-6-ylmethyl)-amino]-r-cyclohexanecarboxylic Acid (6-methoxy-[1,5]naphthyridin-4-yl)-amide Dihydrochloride], the MIC is at most 4 µg/mL.

Turning to `COc1ccc2nccc(NC(=O)[C@]3(O)CC[C@@H](NCc4ccc5c(n4)NC(=O)CO5)CC3)c2n1` [Example 305, 1-Hydroxy-t-4-[(3-oxo-3,4-dihydro-2H-pyrido[3,2-b][1,4]oxazin-6-ylmethyl)-amino]-r-cyclohexanecarboxylic Acid (6-methoxy-[1,5]naphthyridin-4-yl)-amide Dihydrochloride], the MIC is at most 4 µg/mL.

For the molecule `COc1cc(F)c2nccc(NC(=O)[C@]3(O)CC[C@@H](NCc4ccc5c(n4)NC(=O)CS5)CC3)c2c1` [Example 390, 1-Hydroxy-t-4-[(3-oxo-3,4-dihydro-2H-pyrido[3,2-b][1,4]thiazin-6-ylmethyl)-amino-r-cyclohexanecarboxylic acid (8-fluoro-6-methoxy-quinolin-4-yl)-amidedihydrochloride], the MIC was at most 4 µg/mL.

On to `COc1ccc2nccc(NC(=O)[C@]3(O)CC[C@@H](NCc4ccc5c(n4)NC(=O)CS5)CC3)c2c1` [Example 391, 1-Hydroxy-t-4-[(3-oxo-3,4-dihydro-2H-pyrido[3,2-b][1,4]thiazin-6-ylmethyl)-amino-r-cyclohexanecarboxylic acid (6-methoxy-quinolin-4-yl)-amidedihydrochloride], for which the MIC is at most 4 µg/mL.
